Laboratory results: patent publication US20230381192A1, “METHODS FOR CONTROLLING AND PREDICTING RECOVERY AFTER NMBA ADMINISTRATION” (Cornell University, priority 2020, published 2023)
Like-named read-outs stand apart in the source and are kept apart here.

Columns and labels:
Healthy volunteers [1] = assay: Phase I: NMB measured by mechanomyography (twitch T1, TOFR) in healthy volunteers under sevoflurane/N2O; assay type: in vivo, human; conditions: for mean time to 95% T1 recovery: spontaneous recovery
Text: Twitch Height: A peripheral nerve stimulator that applies supramaximal. stimuli to the ulnar nerve at the wrist via surface electrodes was used for neuromuscular monitoring. Following anesthesia induction, single twitch stimuli (0.10 Hz) may be delivered continuously during a 15- to 20- minute period to establish baseline twitch height. Single twitch may continue during and following NMBA administration.
Train-of-Four twitch stimulation pattern ratio (TOFR): The TOP delivers 4 supramaximal electrical impulses that involve four equally strong twitches of the stimulated muscle. A fade of the twitches appears when the neuromuscular blockade increases. Comparison of the fourth twitch (T4) to the first twitch (T1) provides the TOFR.
(§1) (Abstract available in the final supplement of the Journal of Anesthesia and Analgesia, May 2020 (Volume 30, Issue pages 73-74), which is incorporated herein by reference. Healthy volunteers (n=34) aged 18 to 55 of either gender gave informed consent to an 1RB-approved Phase I protocol, NMB was measured by mechanomyography during sevoflurane (0.5 MAC)/N20 (70%) anesthesia. Each volunteer received a single IV bolus of RP1000,
An ED95 dose of 0.08 mg/kg was established under sevoflurane anesthesia and a dose of 0.14 mg/kg led to 100% twitch suppression in all subjects. At doses below 0,08 mg/kg, (n=18) 100% twitch inhibition occurred in NONE of the volunteers. […] volunteers, however, who were given doses of 0.08, 0.10, or 0.14 mg/kg, developed 100% block: (n=2 of 6 at 0.08, 6 of 6 at 0.10, and 4 of 4 at 0,14 mg/kg).
During spontaneous recovery from 100% block, in all volunteers, TOE stimulation was applied to the ulnar nerve every 20 seconds and the response of the thumb was monitored continuously until T1 of TOE had recovered to 95% of baseline and TOFR had reached 0.90. The total duration of block was calculated from injection to recovery of T1 to 95 percent of baseline and to recovery of TOFR to 0.90. The 5-95% recovery intervals during recovery from 100% block were measured, Following the completion of data acquisition for all dosage groups, a comparison was made by ANOVA of the 5-95% recovery times resulting after doses of 0.08, 0.10 and 0.14 mg/kg. Recovery data in the 12 volunteers who developed 100% block were then combined to show a single composite recovery pattern. ANOVA was again done to compare the recovery data (5-95% intervals) for the composite group to the corresponding intervals for the separate dosage groups of 0.08, 0.10, and 0,14 mg/kg.

cats = conditions: cited from earlier work
Rhesus monkeys = assay: Spontaneous recovery from NMB (twitch 5% to 95% of baseline) after bolus or infusion in Rhesus monkeys under isoflurane; assay type: in vivo, Rhesus monkey; conditions: for 5%-95% Interval: mean ± SD
Experimental: Rhesus monkeys under isoflurane anesthesia were administered a bolus dose of either RP2000 or RP1000 at a dose equal to 1× to 10× the ED95 in Rhesus monkeys of the administered compound (ED95,Rp1000=0.040 mg/kg; ED95,RP2000=0.053 mg/kg). Twitch (0.15 Hz) and TOF (2 Hz×2 seconds) were recorded throughout the 6 -10 hours experiments. Time to spontaneous recovery after bolus administration, characterized by recovery of twitch from 5% to 95% of baseline was measured.
Separately, continuous infusions of 20-180 minutes duration were given (to separate subjects), and after discontinuation of infusion, time to spontaneous recovery of NMB, characterized by recovery of twitch from 5% to 95% of baseline was measured.

Healthy volunteers [2] = assay: Phase I safety and tolerability in humans; assay type: in vivo, human
Experimental: as §1

[3] = Phase I pharmacokinetics after single IV bolus; assay type: in vivo; conditions: both sexes, human; for AUC(0-t) / clearance: plasma, iv, 0.04 mg/kg, single IV bolus 0.04 mg/kg (n = 6)
Experimental: as §1

[4] = human, Composite of 0.08, 0.10, 0.14 mg/kg groups (n=12)
[5] = human, dose 0.08 mg/kg, recovery from 100% block
[6] = human, dose 0.1 mg/kg, recovery from 100% block
[7] = human, dose 0.14 mg/kg, recovery from 100% block
[8] = human, doses ≥ED95, approximately

COc1ccc(C[C@@H]2c3cc(OC)c(OC)cc3CC[N@@+]2(C)CCCOC(=O)/C=C/C(=O)OCCC[N@+]2(C)CCc3cc(OC)c(OC)cc3[C@H]2Cc2ccc(OC)c(OC)c2)cc1OC.[Cl-].[Cl-] [RP1000]
Time to maximum T1 recovery (Healthy volunteers [1]; human, 0.08 mg/kg): about 50 minutes
mean time to T4:T1>0.9 (Healthy volunteers [1]; human, 0.08 mg/kg): about 50 minutes
volunteers who developed 100% block (Healthy volunteers [1]; human, 0.08 mg/kg): 2 of 6
Time to maximum T1 recovery (Healthy volunteers [1]; human, 0.10 mg/kg): about 70 minutes
mean time to T4:T1>0.9 (Healthy volunteers [1]; human, 0.10 mg/kg): about 70 minutes
volunteers who developed 100% block (Healthy volunteers [1]; human, 0.10 mg/kg): 6 of 6
mean time from 5% to 95% T1 recovery (Healthy volunteers [1]; human, 0.1 mg/kg and 0.145 mg/kg doses): 35 to 40 min
Time to maximum T1 recovery (Healthy volunteers [1]; human, 0.14 mg/kg): about 70 minutes
mean time to T4:T1>0.9 (Healthy volunteers [1]; human, 0.14 mg/kg): ~80 min
volunteers who developed 100% block (Healthy volunteers [1]; human, 0.14 mg/kg): 4 of 4
Recovery Time, Recovery Interval 5%-95% (Healthy volunteers [1]; [4]): 37.4 ± 6.4 min
Recovery Time, Recovery Interval 25%-75% (Healthy volunteers [1]; [4]): 14.9 ± 3.0 min
Recovery Time, Recovery Interval 5%-95% (Healthy volunteers [1]; [5]): 34.8 ± 12.5 min
Recovery Time, Recovery Interval 25%-75% (Healthy volunteers [1]; [5]): 15.7 ± 8.4 min
Recovery Time, Recovery Interval 5%-95% (Healthy volunteers [1]; [6]): 39.4 ± 6.5 min
Recovery Time, Recovery Interval 25%-75% (Healthy volunteers [1]; [6]): 15.1 ± 2.0 min
Recovery Time, Recovery Interval 5%-95% (Healthy volunteers [1]; [7]): 35.6 ± 3.1 min
Recovery Time, Recovery Interval 25%-75% (Healthy volunteers [1]; [7]): 14.2 ± 0.9 min
twitch suppression (Healthy volunteers [1]; human, dose of 0.14 mg/kg, in all subjects): 100%
volunteers in whom 100% twitch inhibition occurred (Healthy volunteers [1]; human, doses below 0.08 mg/kg (n=18)): NONE
volunteers who developed 100% block (Healthy volunteers [1]; human, doses of 0.08, 0.10, or 0.14 mg/kg pooled): 12 of 14
time to 95% T1 suppression (Healthy volunteers [1]; [8]): 2 to 3 min
time to maximum T1 suppression (Healthy volunteers [1]; [8]): 3 to 5 min
duration of NMB effect (Healthy volunteers [1]; human, injection): intermediate duration
onset of action (Healthy volunteers [1]; human, injection): rapid onset of action
mean time to 95% T1 recovery (Healthy volunteers [1]; human, 0.08 mg/kg): approximately 45 minutes
mean time to 95% T1 recovery (Healthy volunteers [1]; human, 0.10 mg/kg): ~55 min
mean time to 95% T1 recovery (Healthy volunteers [1]; human, 0.14 mg/kg): ~60 min
ED95 dose (Healthy volunteers [1]; human, under sevoflurane anesthesia): 0.08 mg/kg
ED 95 for humans (Healthy volunteers [1]; humans): about 0.077 mg/kg
effects on autonomic or circulatory systems (cats): no observed ill-elects on autonomic or circulatory systems
ED95 in Rhesus monkeys (Rhesus monkeys; Rhesus monkeys, isoflurane anesthesia): 0.040 mg/kg
5%-95% Interval (Rhesus monkeys; after continuous infusion of 20-180 minutes): 13.1 ± 3.7 min
5%-95% Interval (Rhesus monkeys; bolus dose 0.05 mg/kg): 15.3 ± 7.5 min
5%-95% Interval (Rhesus monkeys; bolus dose 0.10 mg/kg): 14.3 ± 6.5 min
5%-95% Interval (Rhesus monkeys; bolus dose 0.20 mg/kg): 13.3 ± 4.4 min
5%-95% Interval (Rhesus monkeys; bolus dose 0.40 mg/kg): 15.5 ± 5.1 min
tolerability (Healthy volunteers [2]; healthy volunteers, 0.02 mg/kg to 0.14 mg/kg): generally well-tolerated
cardiopulmonary side effects (Healthy volunteers [2]; humans, doses up to 0.14 mg/kg): did not result in significant cardiopulmonary side effects
signs of histamine release (Healthy volunteers [2]; humans, doses up to 0.14 mg/kg): nor any signs of histamine release
half-life ([3]; in vivo, intravenous, all dosage groups, read-out: half-life of elimination): 25 to 26 min
AUC(0-t) ([3]; read-out: AUClast, Geometric Mean (converted)): 132 ng·h/mL
AUC(0-t) ([3]; read-out: AUClast, Mean (converted)): 6.35 ng·h/mL
clearance ([3]; read-out: CL (clearance), Geometric Mean): 387 mL/min
clearance ([3]; read-out: CL (clearance), Mean (SD)): 400 mL/min
